Measured values published in patent US4370489A, “Herbicidal compounds” (Hoechst Aktiengesellschaft, priority 1976, dated 1983).

Assays:
sugar beet = assay: Post emergence treatment in two stages, boxes on a site without roof, sugar beet (Table III); assay type: in vivo; settings: 0.9 kg/hectare
Method: (§1) The results and also the results of all following examples were evaluated 4 weeks later according to the following scheme:
(§2) Effect on wild oat and sugar beet
(§3) Post emergence treatment in two stages of development
(§4) boxes 20 × 24 × 22 cm in size on a site without roof

spring wheat [1] = assay: Post-emergence treatment, pots on a site without roof, spring wheat (Example IV, Table IV); assay type: in vivo; settings: emulsion concentrate; note: ranges in brackets are in %
Method: as §1
(§5) In summer a further experiment was carried through under similar conditions to compare the effect of compound 1a with that of comparative compound A. Both compounds were used in the form of an emulsion concentrate (Table IV).
(§6) Post-emergence treatment (evaluation scheme); experiment
(§7) in pots on a site without roof

Avena fatua [2] = assay: Post emergence treatment in two stages, boxes on a site without roof, wild oat (Table III); assay type: in vivo; settings: 0.9 kg/hectare
Method: as §1, §2, §3, §4

spring wheat [3] = assay: Post-emergence trial in two stages, pots on a site without roof, spring wheat (Example II, Table II); assay type: in vivo
Method: as §1
(§8) The amounts of active compound required for a 90% effect, determined by the probit method (cf. Bliss, Annals of Applied Biology, 22 1935), show very distincly the difference between the compound of the invention and the comparative compound. […] None of the compounds did any harm to the wheat.
(§9) Post-emergence treatment in two different stages of development
(§10) Experiments in pots on a site without roof
(§11) stage 1: 3 to 4 leaves with beginning growth of side
(§12) stage 2: main tillering to terminated tillering.

Avena fatua [4] = assay: Post-emergence trial in two stages, pots on a site without roof, wild oat (Example II, Table II); assay type: in vivo; settings: for 90% effective dose: probit method; for Effect on wild oat (evaluation), Avena fatua: post-emergence
Method: as §1, §8, §9, §10, §11, §12

Avena ludoviciana = assay: Post-emergence treatment, pots on a site without roof, Avena ludoviciana (Example IV, Table IV); assay type: in vivo; settings: for Effect (evaluation scheme), Avena ludoviciana: post-emergence, emulsion concentrate
Method: as §1, §5, §6, §7

Digitaria [5] = assay: Pre-emergence greenhouse pot trial, Digitaria (Example V, Table V); assay type: in vivo
Method: as §1
(§13) In a greenhouse the compounds to be tested were sprayed on the surface of the soil directly after sowing. […] Dicotyledonous crop plants (the same as used in Example I) were not damaged by the applied amounts.
(§14) Effect on weed grasses in a pre-emergence process (evalua-
(§15) tion scheme) experiment in pots in the greenhouse.

Alopecurus myos. = assay: Post-emergence treatment, pots on a site without roof, blackgrass (Example IV, Table IV); assay type: in vivo, annual black-grass (Alopecurus); settings: for Effect (evaluation scheme), Alopecurus myos.: post-emergence, emulsion concentrate
Method: as §1, §5, §6, §7

Setaria [6] = assay: Pre-emergence greenhouse pot trial, Setaria (Example V, Table V); assay type: in vivo
Method: as §1, §13, §14, §15

wild oat [7] = assay: Field trial in wild oat, post-emergence treatment (Example VI, Table VI); assay type: in vivo; settings: for efficiency in % (counting of panicles) / evaluation 5 weeks after treatment: post-emergence
Method: In a field trial compound 1a of the invention was sprayed in the form of a 36% wettable powder formulation onto wild oat (single system, natural growth) after the plants had developed 3 or 4 leaves.
Three lots each were treated with different concentrations of the active compound and the comparative compound, the amount of spray liquor applied being 600 liters per hectare. Besides the usual visual evaluation at the end of the trial, the number of panicles per square meter was counted. In the untreated lots 400 to 500 panicles were counted per square meter, i.e. the field was heavily infected.
The relations are still more distinct when the amount of active compound required for a 90% effect is determined by the probit method (graphical evaluation) mentioned in Example II.

Lolium [8] = assay: Pre-emergence greenhouse pot trial, Lolium (Example V, Table V); assay type: in vivo
Method: as §1, §13, §14, §15

Alopecurus = assay: Post-emergence greenhouse pot trial, annual blackgrass (Example I, Table I); assay type: in vivo, annual blackgrass (Alopecurus); settings: greenhouse pots, 4 weeks
Method: (§16) Seeds of weed grasses were sown in pots filled with loamy soil and placed in the greenhouse for germination and emergence. As soon as the plants had developed 3 or 4 leaves, they were sprayed with wettable powder formulations, suspended in water, of compounds according to the invention.
as §1
(§17) 4 is still considered an acceptable herbicidal effect in weeds and a satisfactory preserving effect in crop plants (cf. Bolle, Nachrichtenblatt des Deutschen Pflanzenschutzdienstes 16, 1964, pages 92-94).
(§18) Effect on weed grasses in a post-emergence trial in pots
(§19) in the greenhouse (Evaluation scheme)

Echinochloa [9] = assay: Pre-emergence greenhouse pot trial, Echinochloa (Example V, Table V); assay type: in vivo
Method: as §1, §13, §14, §15

Avena fatua [10] = assay: Post-emergence treatment, pots on a site without roof, Avena fatua (Example IV, Table IV); assay type: in vivo; settings: for Effect (evaluation scheme), Avena fatua: post-emergence, emulsion concentrate
Method: as §1, §5, §6, §7

Setaria [11] = assay: Post-emergence greenhouse pot trial, Setaria (Example I, Table I); assay type: in vivo; settings: greenhouse pots, 4 weeks
Method: as §16, §1, §17, §18, §19

wild oat [12] = assay: Post-emergence trial in the greenhouse, wild oat (Example VII, Table VII); assay type: in vivo; settings: 31 kg/hectare, emulsion concentrate, 4 weeks after treatment
Method: as §1
In a greenhouse some of the compounds of the invention were sprayed on plants of wild oat, the compounds being used as emulsion concentrates.
Post-emergence trial in the greenhouse
Effect on wild oat 4 weeks after treatment
Dose 31 kg/hectare of active compound (as emulsion

Lolium [13] = assay: Post-emergence greenhouse pot trial, Lolium (Example I, Table I); assay type: in vivo; settings: greenhouse pots, 4 weeks
Method: as §16, §1, §17, §18, §19

Echinochloa [14] = assay: Post-emergence greenhouse pot trial, Echinochloa (Example I, Table I); assay type: in vivo; settings: greenhouse pots, 4 weeks
Method: as §16, §1, §17, §18, §19

Digitaria [15] = assay: Post-emergence greenhouse pot trial, Digitaria (Example I, Table I); assay type: in vivo; settings: greenhouse pots, 4 weeks
Method: as §16, §1, §17, §18, §19

weed grasses = assay: Pre-emergence greenhouse pot trial, weed grasses overall (Example V); assay type: in vivo; settings: in words
Method: as §1, §13, §14, §15

spring barley = assay: Post-emergence treatment, pots on a site without roof, spring barley (Example IV, Table IV); assay type: in vivo; settings: emulsion concentrate; note: ranges in brackets are in %
Method: as §1, §5, §6, §7

COC(=O)C(C)Oc1ccc(Oc2ccc(Br)cc2Cl)cc1 (stereo not drawn) [Compound 1a, Methyl-4-(2'-chloro-4'-bromophenoxy)-α-phenoxy-propionate]
sugar beet number (sugar beet; 2-leaf stage): 2 (0 to 2.5)
sugar beet number (sugar beet; 4-leaf stage): 2 (0 to 2.5)
evaluation scheme, spring wheat (spring wheat [1]; 0.225 kg/hectare): 1 (0)
evaluation scheme, spring wheat (spring wheat [1]; 0.45 kg/hectare): 1 (0)
evaluation scheme, spring wheat (spring wheat [1]; 0.9 kg/hectare): 1 (0)
Effect on wild oat, Avena fatua, number (Avena fatua [2]; 3-leaf stage): 1 (100)
degree of damage % (evaluation by weight), Avena fatua (Avena fatua [2]; 3-leaf stage): 100%
Effect on wild oat, Avena fatua, number (Avena fatua [2]; start of tillering): 3 to 4
degree of damage % (evaluation by weight), Avena fatua (Avena fatua [2]; start of tillering): 96%
evaluation, spring wheat (spring wheat [3]; stage 1, 0.112 kg/hectare): 1 (0)
evaluation, spring wheat (spring wheat [3]; stage 1, 0.225 kg/hectare): 1 (0)
evaluation, spring wheat (spring wheat [3]; stage 1, 0.45 kg/hectare): 1 (0)
evaluation, spring wheat (spring wheat [3]; stage 1, 0.9 kg/hectare): 2 (0 to 2.5)
evaluation, spring wheat (spring wheat [3]; stage 2, 0.112 kg/hectare): 1 (0)
evaluation, spring wheat (spring wheat [3]; stage 2, 0.225 kg/hectare): 1 (0)
evaluation, spring wheat (spring wheat [3]; stage 2, 0.45 kg/hectare): 1 (0)
evaluation, spring wheat (spring wheat [3]; stage 2, 0.9 kg/hectare): 2 (0 to 2.5)
dosage sufficient with respect to the comparative compound (90% effect) (Avena fatua [4]; applied in the second stage): about half the dosage
effect on wild oat compared with compound A (Avena fatua [4]; emulsion concentrate of 36% strength, in words): better effect on wild oat than compound A
90% effective dose (Avena fatua [4]; stage 1 (3 to 4 leaves with beginning growth of side)): 0.34 kg per hectare
Effect on wild oat (evaluation), Avena fatua (Avena fatua [4]; stage 1, 0.112 kg/hectare): 6 (75.0 to <85.0)
Effect on wild oat (evaluation), Avena fatua (Avena fatua [4]; stage 1, 0.225 kg/hectare): 5 (85.0 to <90.0)
Effect on wild oat (evaluation), Avena fatua (Avena fatua [4]; stage 1, 0.45 kg/hectare): 4 (90.0 to <95.0)
Effect on wild oat (evaluation), Avena fatua (Avena fatua [4]; stage 1, 0.9 kg/hectare): 3 (95.0 to <.97.5)
90% effective dose (Avena fatua [4]; stage 2 (main tillering to terminated tillering)): 0.45 kg per hectare
Effect on wild oat (evaluation), Avena fatua (Avena fatua [4]; stage 2, 0.112 kg/hectare): 7 (65.0 to <75.0)
Effect on wild oat (evaluation), Avena fatua (Avena fatua [4]; stage 2, 0.225 kg/hectare): 6 (75.0 to <85.0)
Effect on wild oat (evaluation), Avena fatua (Avena fatua [4]; stage 2, 0.45 kg/hectare): 4 (90.0 to <95.0)
Effect on wild oat (evaluation), Avena fatua (Avena fatua [4]; stage 2, 0.9 kg/hectare): 3 (95.0 to <.97.5)
Effect (evaluation scheme), Avena ludoviciana (Avena ludoviciana; 0.225 kg/hectare): 6 (75.0 to <85.0)
Effect (evaluation scheme), Avena ludoviciana (Avena ludoviciana; 0.45 kg/hectare): 5 (85.0 to <90.0)
Effect (evaluation scheme), Avena ludoviciana (Avena ludoviciana; 0.9 kg/hectare): 4 (90.0 to <95.0)
effect on Avena ludoviciana compared with comparative compound (Avena ludoviciana; in words): distinctly better effect than the comparative compound
Effect on weed grasses (evaluation scheme), Digitaria (Digitaria [5]; 0.62 kg/hectare): 4 (90.0 to <95.0)
Effect on weed grasses (evaluation scheme), Digitaria (Digitaria [5]; 1.25 kg/hectare): 2 (97.5 to <100)
Effect (evaluation scheme), Alopecurus myos. (Alopecurus myos.; 0.225 kg/hectare): 5 (85.0 to <90.0)
Effect (evaluation scheme), Alopecurus myos. (Alopecurus myos.; 0.45 kg/hectare): 3 (95.0 to <.97.5)
Effect (evaluation scheme), Alopecurus myos. (Alopecurus myos.; 0.9 kg/hectare): 1 (100)
response of annual black-grass (Alopecurus) (Alopecurus myos.; in words): responded very well
Effect on weed grasses (evaluation scheme), Setaria (Setaria [6]; 0.62 kg/hectare): 6 (75.0 to <85.0)
Effect on weed grasses (evaluation scheme), Setaria (Setaria [6]; 1.25 kg/hectare): 4 (90.0 to <95.0)
efficiency in % (counting of panicles) (wild oat [7]; 0.54 kg/hectare): 79.0%
evaluation 5 weeks after treatment (wild oat [7]; 0.54 kg/hectare): 7 (65.0 to <75.0)
efficiency in % (counting of panicles) (wild oat [7]; 0.72 kg/hectare): 90.0%
evaluation 5 weeks after treatment (wild oat [7]; 0.72 kg/hectare): 5 (85.0 to <90.0)
efficiency in % (counting of panicles) (wild oat [7]; 0.90 kg/hectare): 97.4%
evaluation 5 weeks after treatment (wild oat [7]; 0.90 kg/hectare): 3 (95.0 to <.97.5)
amount sufficient compared with the comparative compound (90% effect) (wild oat [7]; probit method): about 1/4
amount of active compound required for a 90% effect (wild oat [7]; without wetting agent, probit method (graphical evaluation)): 0.68 kg/hectare
Effect on weed grasses (evaluation scheme), Lolium (Lolium [8]; 0.62 kg/hectare): 6 (75.0 to <85.0)
Effect on weed grasses (evaluation scheme), Lolium (Lolium [8]; 1.25 kg/hectare): 3 (95.0 to <.97.5)
Effect on weed grasses (evaluation scheme number), Alopecurus (Alopecurus; 0.15 kg/hectare): 3 (95.0 to <.97.5)
Effect on weed grasses (evaluation scheme number), Alopecurus (Alopecurus; 0.62 kg/hectare): 1 (100)
Effect on weed grasses (evaluation scheme number), Alopecurus (Alopecurus; 2.5 kg/hectare): 1 (100)
Effect on weed grasses (evaluation scheme), Echinochloa (Echinochloa [9]; 0.62 kg/hectare): 3 (95.0 to <.97.5)
Effect on weed grasses (evaluation scheme), Echinochloa (Echinochloa [9]; 1.25 kg/hectare): 2 (97.5 to <100)
Effect (evaluation scheme), Avena fatua (Avena fatua [10]; 0.225 kg/hectare): 7 (65.0 to <75.0)
Effect (evaluation scheme), Avena fatua (Avena fatua [10]; 0.45 kg/hectare): 6 (75.0 to <85.0)
Effect (evaluation scheme), Avena fatua (Avena fatua [10]; 0.9 kg/hectare): 5 (85.0 to <90.0)
effect on Avena fatua compared with comparative compound (Avena fatua [10]; in words): distinctly better effect than the comparative compound
Effect on weed grasses (evaluation scheme number), Setaria (Setaria [11]; 0.15 kg/hectare): 2 (97.5 to <100)
Effect on weed grasses (evaluation scheme number), Setaria (Setaria [11]; 0.62 kg/hectare): 1 (100)
Effect on weed grasses (evaluation scheme number), Setaria (Setaria [11]; 2.5 kg/hectare): 1 (100)
effect (number) on wild oat (wild oat [12]): 1 (100)
Effect on weed grasses (evaluation scheme number), Lolium (Lolium [13]; 0.15 kg/hectare): 5 (85.0 to <90.0)
Effect on weed grasses (evaluation scheme number), Lolium (Lolium [13]; 0.62 kg/hectare): 3 (95.0 to <.97.5)
Effect on weed grasses (evaluation scheme number), Lolium (Lolium [13]; 2.5 kg/hectare): 2 (97.5 to <100)
Effect on weed grasses (evaluation scheme number), Echinochloa (Echinochloa [14]; 0.15 kg/hectare): 2 (97.5 to <100)
Effect on weed grasses (evaluation scheme number), Echinochloa (Echinochloa [14]; 0.62 kg/hectare): 2 (97.5 to <100)
Effect on weed grasses (evaluation scheme number), Echinochloa (Echinochloa [14]; 2.5 kg/hectare): 1 (100)
Effect on weed grasses (evaluation scheme number), Digitaria (Digitaria [15]; 0.15 kg/hectare): 6 (75.0 to <85.0)
Effect on weed grasses (evaluation scheme number), Digitaria (Digitaria [15]; 0.62 kg/hectare): 1 (100)
Effect on weed grasses (evaluation scheme number), Digitaria (Digitaria [15]; 2.5 kg/hectare): 1 (100)
effect in pre-emergence treatment compared with comparative compound A (weed grasses): better effect
evaluation scheme, spring barley (spring barley; 0.225 kg/hectare): 1 (0)
evaluation scheme, spring barley (spring barley; 0.45 kg/hectare): 1 (0)
evaluation scheme, spring barley (spring barley; 0.9 kg/hectare): 1 (0)
